Active and inactive are the calls of the source. The calls are words filed in the database; no cut-off is given here.
Legend:
[1] = target: Cytosolic purine 5'-nucleotidase (Homo sapiens) (UniProt P49902); test: Inhibition of nucleotidase activity of recombinant NT5C2 (unknown origin) pre-incubated for 10 mins before IMP substrate addition and further incubated for 5 mins in presence of 0.3 mM ATP by malachite green assay relative to control
[2] = target: Cytosolic purine 5'-nucleotidase (Homo sapiens) (UniProt P49902); test: Inhibition of basal nucleotidase activity of recombinant NT5C2 (unknown origin) pre-incubated for 10 mins before IMP substrate addition and further incubated for 5 mins in absence of ATP by malachite green assay

Cytosolic purine 5'-nucleotidase (Homo sapiens), sequence (P49902 whole entry): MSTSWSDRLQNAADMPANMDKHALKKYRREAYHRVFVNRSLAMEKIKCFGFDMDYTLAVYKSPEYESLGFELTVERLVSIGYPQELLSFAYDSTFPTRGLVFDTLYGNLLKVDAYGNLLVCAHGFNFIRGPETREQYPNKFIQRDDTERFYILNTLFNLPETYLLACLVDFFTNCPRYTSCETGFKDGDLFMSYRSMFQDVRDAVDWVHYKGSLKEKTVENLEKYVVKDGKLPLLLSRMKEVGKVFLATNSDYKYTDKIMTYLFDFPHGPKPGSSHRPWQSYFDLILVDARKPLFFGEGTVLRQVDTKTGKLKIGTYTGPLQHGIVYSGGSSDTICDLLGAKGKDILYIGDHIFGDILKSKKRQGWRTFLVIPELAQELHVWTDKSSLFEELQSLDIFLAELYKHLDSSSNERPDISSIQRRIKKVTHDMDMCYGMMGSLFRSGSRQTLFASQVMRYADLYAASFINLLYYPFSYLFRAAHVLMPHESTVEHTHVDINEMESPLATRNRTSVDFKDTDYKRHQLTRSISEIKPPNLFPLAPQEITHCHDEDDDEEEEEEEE

inhibition [1]	inhibition [2]	Compound
75%	Active	Nc1nc2c(c(NCCc3csc(N)n3)n1)CCCC2
29%	Active	CCc1nc(N)nc(N2CCCOC(CN3CCOCC3)C2)c1C (stereo unspecified)
49%	Active	CCc1c(C)nc(N)nc1NCCc1csc(N)n1
42%	Active	Nc1nc2c(c(N3CCc4nc(N)sc4C3)n1)CCCC2
54%	Active	CCc1cc(NCCCc2csc(N)n2)nc(N)n1
49%	Active	Cc1nc(N2CCC(c3cc(CC(=O)O)n[nH]3)CC2)cc(-n2cccn2)n1
85%	Active	Nc1nc(N2CCOCC2)cc(N2CCC(c3cc(CC(=O)O)[nH]n3)CC2)n1
62%	Active	Cc1cc(N2CCC(c3cc(CC(=O)O)n[nH]3)CC2)nc(N2CCCC2)n1

— ChEMBL document CHEMBL4417639, “Nt5c2 inhibitors useful for the treatment of chemotherapy resistant acute lymphoblastic leukemia” (2018)
